These results are taken from patent US9062028B2, “Bicyclic nitrogen containing heteroaryl TGR5 receptor modulators” (Bristol-Myers Squibb Company, priority 2011, dated 2015).

Usually EC50 stands for the concentration that produces a half-maximal response.

Where a name gives a salt, the structure may show the parent alone.

In the experiment the target is T1, recombinant human TGR5 (Homo sapiens, UniProt Q8TDU6).
T1 construct: expressed in transfected cells
T1 sequence (Q8TDU6 1-330): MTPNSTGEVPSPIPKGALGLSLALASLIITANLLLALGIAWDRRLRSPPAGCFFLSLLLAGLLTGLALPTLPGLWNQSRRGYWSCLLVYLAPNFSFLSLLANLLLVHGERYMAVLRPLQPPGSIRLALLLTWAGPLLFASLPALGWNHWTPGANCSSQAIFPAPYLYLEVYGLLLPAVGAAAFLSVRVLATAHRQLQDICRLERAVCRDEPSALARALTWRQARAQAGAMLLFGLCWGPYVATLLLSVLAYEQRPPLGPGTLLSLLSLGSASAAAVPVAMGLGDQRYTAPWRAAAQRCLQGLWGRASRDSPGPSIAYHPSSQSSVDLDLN
Briefly: cAMP assay (cAMP accumulation, HTRF) in CHOK1 cells stably expressing TGR5. It is filed as cell-based. The note with it: CHOK1 cells stably expressing human TGR5, 30 minutes at RT, 1% DMSO. Here is the method: The in vitro modulation of recombinant human TGR5 was determined as follows.
A human TGR5 expression construct of human TGR5 was integrated into the genome of a CHOK1 cell line (Invitrogen). Once a stable CHOK1 cell line was generated, the cells were incubated for 5-10 minutes in culture medium consisting of F-12 (Invitrogen#11765-047) supplemented with 10% fetal bovine serum.
On the day of the cAMP accumulation assay, cells stably expressing the […] TGR5 construct were centrifuged at 1000 rpm for 5 minutes. The medium was aspirated and the cells were resuspended in 5 mL of assay buffer (phosphate-buffered saline with Ca^2+ and Mg^2+, Invitrogen#14040). The cells were counted using 1:2 dilution and then adjusted to 0.4-0.5×10^6 cells/mL in assay buffer, if necessary. Isobutylmethylxanthine (IBMX, Sigma#I5879) was added via a 1:5000 dilution to make a 0.1 mM final concentration and then 10 μL of the media were transferred to each well of a 384 well poly-D-lysine coated solid white plate (BD #35-6661) pre-dotted with 100 nL of with the desired concentration of compound added from a concentrated stock dissolved in dimethyl sulfoxide (DMSO) to give a final concentration of 1% DMSO in the assay. The plates were covered and incubated for 30 minutes at RT. cAMP accumulation was measured using the CisBio homogeneous time resolved fluorescence (HTRF) assay kit (#62AM2PEC) following the manufacturer's protocol. Briefly, 5 μl each of the cAMP-HTRF fluorescence detection reagents were added to each well, and the samples were incubated for at least one hour at room temperature. Fluorescence was excited at 320 nm and measured at 665 and 620 nm using the Envision instrument (Perkin Elmer), the fluorescence ratio of 665/620 was calculated and converted to nanomolar concentrations of cAMP in each well by interpolation from a cAMP standard curve. The concentration-response curves and EC50 values were calculated with a four parameter logistic curve fit equation utilizing Excel/XLfit software (Microsoft and IDBS). The EC50 value was calculated as the concentration of agonist which increased the cAMP concentration to a value halfway between the baseline and the maximum.
(cAMP levels reflect the balance of adenylyl cyclase and phosphodiesterase activity.)
`Cc1c(Cl)cccc1OCCCC(=O)N1CCCc2c(-c3cnn(CC(=O)O)c3)cccc21` [Example 197, 2-(4-(1-(4-(3-Chloro-2-methylphenoxy)butanoyl)-1,2,3,4-tetrahydroquinolin-5-yl)-1H-pyrazol-1-yl)acetic acid]: the EC50 is 2150 nM.

On to `Cc1c(Cl)cccc1OCCCC(=O)N1CC2CC2c2c(-c3cnn(Cc4cccc(C(=O)NCS(=O)(=O)O)c4)c3)cccc21` (stereo not drawn) [Example 222, (3-((4-(3-(4-(3-Chloro-2-methylphenoxy)butanoyl)-1a,2,3,7b-tetrahydro-1H-cyclopropa[c]quinolin-7-yl)-1H-pyrazol-1-yl)methyl)benzamido)methanesulfonic acid], for which the concentration for a half-maximal effect (EC50) came out at 55 nM.

Regarding `Cc1cccc(OCCCC(=O)N2CCCc3c(-c4cccc(COC(=O)NCC(C)(C)C(=O)O)c4)cccc32)c1C` [Example 257, 3-((3-(1-(4-(2,3-Dimethylphenoxy)butanoyl)-1,2,3,4-tetrahydroquinolin-5-yl)benzyloxy)carbonylamino)-2,2-dimethylpropanoic acid], the half-maximal effective concentration (EC50) was 682 nM.

Take `Cc1cccc(OCCCC(=O)N2CCCc3c(-c4cccc(COC(=O)N[C@@H](CC(=O)O)C(=O)O)c4)cccc32)c1C` [Example 268, (S)-2-((3-(1-(4-(2,3-Dimethylphenoxy)butanoyl)-1,2,3,4-tetrahydroquinolin-5-yl)benzyloxy)carbonylamino)succinic acid]: the EC50 was determined as 5020 nM.

Take `Cc1cccc(OCCCC(=O)N2CCCc3c(-c4cccc(COC(=O)NCC(C)C(=O)O)c4)cccc32)c1C` (stereo not drawn) [Example 270, 3-((3-(1-(4-(2,3-Dimethylphenoxy)butanoyl)-1,2,3,4-tetrahydroquinolin-5-yl)benzyloxy)carbonylamino)-2-methylpropanoic acid]: the concentration giving a half-maximal response (EC50) is 608 nM.

For `Cc1cccc(OCCCC(=O)N2CCCc3c(-c4cccc(COC(=O)NCC[C@H](O)C(=O)O)c4)cccc32)c1C` [Example 273, (S)-4-((3-(1-(4-(2,3-Dimethylphenoxy)butanoyl)-1,2,3,4-tetrahydroquinolin-5-yl)benzyloxy)carbonylamino)-2-hydroxybutanoic acid], the EC50 stood at 646 nM.

Regarding `Cc1cccc(OCCCC(=O)N2CCCc3c(-c4cccc(COC(=O)NC(C)CC(=O)O)c4)cccc32)c1C` (stereo not drawn) [Example 275, 3-((3-(1-(4-(2,3-Dimethylphenoxy)butanoyl)-1,2,3,4-tetrahydroquinolin-5-yl)benzyloxy)carbonylamino) butanoic acid], the EC50 is 608 nM.

For the compound `Cc1cccc(OCCCC(=O)N2CCCc3c(-c4cccc(COC(=O)N[C@H](CO)C(=O)O)c4)cccc32)c1C` [Example 282, (R)-2-((3-(1-(4-(2,3-Dimethylphenoxy)butanoyl)-1,2,3,4-tetrahydroquinolin-5-yl)benzyloxy)carbonylamino)-3-hydroxypropanoic acid], the EC50 worked out at 664 nM.

Turning to `Cc1cccc(OCCCC(=O)N2CCCc3c(-c4cccc(COC(=O)NC(Cc5c[nH]cn5)C(=O)O)c4)cccc32)c1C` (stereo not drawn) [Example 283, 2-((3-(1-(4-(2,3-Dimethylphenoxy)butanoyl)-1,2,3,4-tetrahydroquinolin-5-yl)benzyloxy)carbonylamino)-3-(1H-imidazol-4-yl)propanoic acid], the EC50 stood at 3180 nM.

With `Cc1cccc(OCCCC(=O)N2CCCc3c(-c4cccc(COC(=O)N[C@H](Cc5c[nH]cn5)C(=O)O)c4)cccc32)c1C` [Example 288, (R)-2-((3-(1-(4-(2,3-Dimethylphenoxy)butanoyl)-1,2,3,4-tetrahydroquinolin-5-yl)benzyloxy)carbonylamino)-3-(1H-imidazol-4-yl)propanoic acid], the EC50 came out at 3950 nM.

With `Cc1cccc(OCCCC(=O)N2CCCc3c(-c4cccc(COC(=O)NC(CCS)C(=O)O)c4)cccc32)c1C` (stereo not drawn) [Example 289, 2-((3-(1-(4-(2,3-Dimethylphenoxy)butanoyl)-1,2,3,4-tetrahydroquinolin-5-yl)benzyloxy)carbonylamino)-4-mercaptobutanoic acid], the EC50 was 2810 nM.

Consider `Cc1cccc(OCCCC(=O)N2CCCc3c(-c4cccc(COC(=O)NCC(F)(F)C(=O)O)c4)cccc32)c1C` [Example 297, 3-((3-(1-(4-(2,3-Dimethylphenoxy)butanoyl)-1,2,3,4-tetrahydroquinolin-5-yl)benzyloxy)carbonylamino)-2,2-difluoropropanoic acid], for which the EC50 was 687 nM.

With `Cc1cccc(OCCCC(=O)N2CCCc3c(-c4cccc(COC(=O)N[C@@H](C)CC(=O)O)c4)cccc32)c1C` [Example 302, (S)-3-((3-(1-(4-(2,3-Dimethylphenoxy)butanoyl)-l,2,3,4-tetrahydroquinolin-5-yl)benzyloxy)carbonylamino) butanoic acid], the EC50 amounted to 593 nM.

On to `Cc1cccc(OCCCC(=O)N2CCCc3c(-c4cccc(COC(=O)N[C@@H](Cc5cncn5C)C(=O)O)c4)cccc32)c1C` [Example 316, (S)-2-((3-(1-(4-(2,3-Dimethylphenoxy)butanoyl)-1,2,3,4-tetrahydroquinolin-5-yl)benzyloxy)carbonylamino)-3-(1-methyl-1H-imidazol-5-yl) propanoic acid], for which the EC50 was found to be 638 nM.

`Cc1cccc(OCCCC(=O)N2CCCc3c(-c4cccc(COC(=O)NC(CP(=O)(O)O)C(=O)O)c4)cccc32)c1C` (stereo not drawn) [Example 319, 2-((3-(1-(4-(2,3-Dimethylphenoxy)butanoyl)-1,2,3,4-tetrahydroquinolin-5-yl)benzyloxy)carbonylamino)-3-phosphonopropanoic acid]: the EC50 stood at 3820 nM.

Regarding `Cc1cccc(OCCCC(=O)N2CCCc3c(-c4cccc(COC(=O)N[C@@H](Cc5ccc(OP(=O)(O)O)cc5)C(=O)O)c4)cccc32)c1C` [Example 324, (S)-2-((3-(1-(4-(2,3-Dimethylphenoxy)butanoyl)-1,2,3,4-tetrahydroquinolin-5-yl)benzyloxy)carbonylamino)-3-(4-(phosphonooxy)phenyl)propanoic acid], the EC50 worked out at 3390 nM.

With `Cc1c(Cl)cccc1OCCOC(=O)N1CC(O)COc2c(-c3cnn(Cc4c(F)cc(C(=O)O)cc4Cl)c3)cccc21` (stereo not drawn) [Example 334, 3-Chloro-4-((4-(5-((2-(3-chloro-2-methylphenoxy)ethoxy)carbonyl)-3-hydroxy-2,3,4,5-tetrahydrobenzo[b][1,4]oxazepin-9-yl)-1H-pyrazol-1-yl)methyl)-5-fluorobenzoic acid], the EC50 is 1260 nM.

Regarding `Cc1c(Cl)cccc1OCCOC(=O)N1CC(F)(F)COc2c(-c3cnn(Cc4c(F)cc(C(=O)O)cc4Cl)c3)cccc21` [Example 336, 3-Chloro-4-((4-(5-((2-(3-chloro-2-methylphenoxy)ethoxy)carbonyl)-3,3-difluoro-2,3,4,5-tetrahydrobenzo[b][1,4]oxazepin-9-yl)-1H-pyrazol-1-yl)methyl)-5-fluorobenzoic acid], the EC50 is 173 nM.

For `Cc1cccc(OCCCC(=O)N(C)c2cccc(-c3cnn(Cc4cccc(C(=O)O)c4)c3)c2)c1C` [Example 339, 3-((4-(3-(4-(2,3-Dimethylphenoxy)-N-methylbutanamido)phenyl)-1H-pyrazol-1-yl)methyl) benzoic acid], the EC50 worked out at 2580 nM.

As for `Cc1c(Cl)cccc1OCCCC(=O)N1C[C@@H]2C[C@@H]2c2c(-c3cnn(Cc4cccc(N5C(=O)CN(CC(=O)O)C5=O)c4)c3)cccc21` [Example 350, 2-(3-(3-((4-((1aR,7bS)-3-(4-(3-Chloro-2-methylphenoxy)butanoyl)-1a,2,3,7b-tetrahydro-1H-cyclopropa[c]quinolin-7-yl)-1H-pyrazol-1-yl)methyl)phenyl)-2,4-dioxoimidazolidin-1-yl) acetic acid], the EC50 was 31 nM.

For `Cc1c(Cl)cccc1OCCCC(=O)N1C[C@@H]2C[C@@H]2c2c(-c3cnn(Cc4cccc(N5C(=O)[C@H](CCC[N+](C)(C)C)N(C)C5=O)c4)c3)cccc21` [Example 352, 3-((S)-1-(3-((4-((1aR,7bS)-3-(4-(3-Chloro-2-methylphenoxy)butanoyl)-1a,2,3,7b-tetrahydro-1H-cyclopropa[c]quinolin-7-yl)-1H-pyrazol-1-yl)methyl)phenyl)-3-methyl-2,5-dioxoimidazolidin-4-yl)-N,N,N-trimethylpropan-1-aminium, TFA salt], the half-maximal effective concentration (EC50) worked out at 196 nM.
